Measurements published in patent publication US20040235049A1, “Device for presentation of polypeptides able to be used as a chip for miniaturised detection of molecules” (priority 2001, published 2004).

Test system: antibodies of positive and negative sera (HCV)
Assay: Ketone-functionalised (transaminated) peptide on semicarbazide slides tested with sera
Assay type: binding, human
Settings: 16 spots, peptide 10^−4 M
Protocol: The slides are then incubated in the presence of 100 μl of serum from patients diluted to 1/50th in the dilution buffer (PBS+2.5% of powdered semi-skimmed milk+0.5% of Tween 20) under a glass cover slip (24×60 mm). […] 4 successive washes are then effected for 3 minutes in PBS solution with 0.05% added Tween 20.
The reaction of the antibodies of patients with the polypeptides attached to the slide is detected by the binding onto these of fluorescent anti-human IgG antibodies. 100 μl of solution of anti-human IgG-A-M antibodies labelled with rhodamine (TRITC) (Jackson ImmunoResearch Laboratories, Baltimore, US) diluted to 1/100th in the dilution buffer (PBS+2.5% of powdered semi-skimmed milk+0.5% of Tween 20) are then deposited onto each slide. Each slide is then covered with a cover slip (24×60 mm) and left to incubate for 1 hours at 37° C. under a moist atmosphere. A series of 4 successive washes in PBS solution with 0.05% of added Tween 20 is carried out.
The fluorescence emitted is then detected using a slide scanner (L35/PMT 50, Affymetrix 418 Chip Scanner, MWG).
The 2 peptides HCVpc21-Met (non-transaminated) and pc21-TA (transaminated) and also the peptide HCVpc21-2 (described in Example 3) were attached to semicarbazide slides at the rate of 16 spots of each peptide per slide.
Each peptide was deposited at the concentration of 10^−4 M.
The slides were incubated in the presence of 4 positive sera and 2 negative sera.

Substance: H-MTNRRPQDVKFPGGGQIVGGVYLLPRRGPRLG-NH2 [pc21-Met, non-transaminated control peptide]
- Mean Fluorescence (Serum 41, ELISA o.d. 1.4): 960
- Mean Fluorescence (Serum 43, ELISA o.d. 1.7): 2810
- Mean Fluorescence (Serum 45, ELISA o.d. 0.7): 356
- Mean Fluorescence (Serum 48, negative): 59
- Mean Fluorescence (Serum 53, ELISA o.d. 2.7): 7741
- Mean Fluorescence (Serum 55, negative): 55
